Experimental data from publication PMC2873968, “Novel protein kinase D inhibitors cause potent arrest in prostate cancer cell growth and motility” (BMC Chemical Biology, 2010).

Experiments:
PDGFRα = PDGFRα (Homo sapiens, UniProt P16234); test: Kinase profiling, single-dose in vitro kinase assay (Caliper Life Sciences); conditions: read-out: Average % Inhibition PDGFRα
BTK = BTK (Homo sapiens, UniProt Q06187); test: as above; conditions: read-out: Average % Inhibition BTK
PKCα = target: T1, PKCα (Homo sapiens, UniProt P17252); design: method as in PMID 18829454; conditions: previously reported; cited from earlier work
T1 construct: purchased Cell Signaling Technology and Calbiochem

SYK = SYK (Homo sapiens, UniProt P43405); test: Kinase profiling, single-dose in vitro kinase assay (Caliper Life Sciences); conditions: read-out: Average % Inhibition SYK
Erk1 = Erk1 (Homo sapiens, UniProt P27361); test: as above; conditions: read-out: Average % Inhibition Erk1, 10 μM
EGFR = EGFR (Homo sapiens, UniProt P00533); test: as above; conditions: read-out: Average % Inhibition EGFR
Ikkb = Ikkb (Homo sapiens, UniProt O14920); test: as above; conditions: read-out: Average % Inhibition Ikkb
PKG1α = PKG1α (Homo sapiens, UniProt Q13976); test: as above; conditions: read-out: Average % Inhibition PKG1α
c-Raf = c-Raf (Homo sapiens, UniProt P04049); test: as above; conditions: read-out: Average % Inhibition c-Raf
PKA = PKA (Homo sapiens, UniProt P17612); test: as above; conditions: read-out: Average % Inhibition PKA
PKCζ = PKCζ (Homo sapiens, UniProt Q05513); test: as above; conditions: read-out: Average % Inhibition PKCζ
Sequence of PKCζ (Q05513 whole entry): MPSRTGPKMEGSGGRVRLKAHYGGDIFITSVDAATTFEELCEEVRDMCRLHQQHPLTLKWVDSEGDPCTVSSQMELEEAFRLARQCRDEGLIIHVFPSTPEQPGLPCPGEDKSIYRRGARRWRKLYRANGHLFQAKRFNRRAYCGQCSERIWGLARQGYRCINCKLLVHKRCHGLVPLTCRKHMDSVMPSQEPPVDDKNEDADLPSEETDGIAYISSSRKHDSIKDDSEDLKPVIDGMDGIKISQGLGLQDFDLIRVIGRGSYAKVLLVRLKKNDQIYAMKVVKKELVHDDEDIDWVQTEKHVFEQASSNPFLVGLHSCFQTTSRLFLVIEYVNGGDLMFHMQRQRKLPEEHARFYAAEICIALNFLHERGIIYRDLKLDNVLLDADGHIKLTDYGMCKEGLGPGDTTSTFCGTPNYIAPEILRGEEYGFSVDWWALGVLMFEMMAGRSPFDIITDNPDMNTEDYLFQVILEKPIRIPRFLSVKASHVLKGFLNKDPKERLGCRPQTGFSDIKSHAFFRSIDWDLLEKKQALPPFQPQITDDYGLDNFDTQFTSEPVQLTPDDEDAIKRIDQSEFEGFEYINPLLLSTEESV

Sequence of PKG1α (Q13976 whole entry): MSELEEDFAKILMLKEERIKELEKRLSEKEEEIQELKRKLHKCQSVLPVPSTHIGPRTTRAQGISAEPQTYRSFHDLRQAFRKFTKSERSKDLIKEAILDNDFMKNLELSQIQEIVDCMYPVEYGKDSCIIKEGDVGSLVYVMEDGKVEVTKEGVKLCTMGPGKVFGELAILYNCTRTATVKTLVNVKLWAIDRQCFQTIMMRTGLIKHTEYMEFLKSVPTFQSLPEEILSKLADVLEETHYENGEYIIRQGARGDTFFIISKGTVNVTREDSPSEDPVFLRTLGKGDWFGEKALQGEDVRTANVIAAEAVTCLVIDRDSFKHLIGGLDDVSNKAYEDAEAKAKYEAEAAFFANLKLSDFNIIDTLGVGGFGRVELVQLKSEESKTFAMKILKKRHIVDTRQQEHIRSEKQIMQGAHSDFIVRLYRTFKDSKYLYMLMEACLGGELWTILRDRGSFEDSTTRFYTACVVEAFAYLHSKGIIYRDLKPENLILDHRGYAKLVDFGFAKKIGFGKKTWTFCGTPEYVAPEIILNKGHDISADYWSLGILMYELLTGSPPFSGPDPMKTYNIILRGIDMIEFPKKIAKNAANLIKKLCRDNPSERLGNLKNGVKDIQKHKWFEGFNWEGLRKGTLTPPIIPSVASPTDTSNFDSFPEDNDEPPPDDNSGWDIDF
Sequence of EGFR (P00533 25-1210): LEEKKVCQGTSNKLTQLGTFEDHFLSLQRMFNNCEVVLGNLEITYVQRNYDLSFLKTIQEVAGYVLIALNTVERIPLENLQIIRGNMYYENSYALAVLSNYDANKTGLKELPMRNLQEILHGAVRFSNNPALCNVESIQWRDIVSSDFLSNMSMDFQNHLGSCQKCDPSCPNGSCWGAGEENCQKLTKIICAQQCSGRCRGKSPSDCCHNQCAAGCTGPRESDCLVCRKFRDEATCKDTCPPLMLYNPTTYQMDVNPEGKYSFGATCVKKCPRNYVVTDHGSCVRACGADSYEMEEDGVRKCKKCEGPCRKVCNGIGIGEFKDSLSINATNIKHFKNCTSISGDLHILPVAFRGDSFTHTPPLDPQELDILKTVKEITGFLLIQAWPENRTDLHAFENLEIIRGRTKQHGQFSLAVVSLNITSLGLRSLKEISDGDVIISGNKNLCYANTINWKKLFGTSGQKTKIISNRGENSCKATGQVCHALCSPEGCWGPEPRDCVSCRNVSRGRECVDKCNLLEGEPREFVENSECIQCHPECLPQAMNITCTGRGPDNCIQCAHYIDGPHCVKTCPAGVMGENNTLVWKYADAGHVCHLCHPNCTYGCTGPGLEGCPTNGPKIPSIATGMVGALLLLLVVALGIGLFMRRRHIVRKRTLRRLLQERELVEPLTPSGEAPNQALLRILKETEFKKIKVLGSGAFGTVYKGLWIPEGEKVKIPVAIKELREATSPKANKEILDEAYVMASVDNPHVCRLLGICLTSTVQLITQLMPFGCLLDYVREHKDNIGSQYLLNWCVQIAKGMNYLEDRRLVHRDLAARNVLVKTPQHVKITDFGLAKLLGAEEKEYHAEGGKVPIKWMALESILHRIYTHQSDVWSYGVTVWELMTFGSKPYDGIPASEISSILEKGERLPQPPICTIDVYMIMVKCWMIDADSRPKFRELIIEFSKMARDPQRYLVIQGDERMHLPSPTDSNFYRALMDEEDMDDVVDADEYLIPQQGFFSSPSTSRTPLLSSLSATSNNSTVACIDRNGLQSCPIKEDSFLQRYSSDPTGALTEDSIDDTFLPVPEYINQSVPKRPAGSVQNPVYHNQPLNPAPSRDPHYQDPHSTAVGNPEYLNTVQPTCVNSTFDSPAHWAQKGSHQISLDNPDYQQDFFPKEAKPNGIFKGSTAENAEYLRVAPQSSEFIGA
Sequence of Erk1 (P27361 whole entry): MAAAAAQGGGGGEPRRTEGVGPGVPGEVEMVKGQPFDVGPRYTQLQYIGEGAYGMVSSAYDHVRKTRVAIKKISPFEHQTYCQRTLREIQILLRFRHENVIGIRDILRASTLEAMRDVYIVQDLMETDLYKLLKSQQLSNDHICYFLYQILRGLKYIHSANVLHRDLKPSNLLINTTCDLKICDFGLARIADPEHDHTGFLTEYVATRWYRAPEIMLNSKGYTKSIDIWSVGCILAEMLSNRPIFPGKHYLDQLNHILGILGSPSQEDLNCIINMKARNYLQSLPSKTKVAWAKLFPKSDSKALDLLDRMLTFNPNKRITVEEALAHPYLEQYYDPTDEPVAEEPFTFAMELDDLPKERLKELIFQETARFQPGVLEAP
Sequence of c-Raf (P04049 whole entry): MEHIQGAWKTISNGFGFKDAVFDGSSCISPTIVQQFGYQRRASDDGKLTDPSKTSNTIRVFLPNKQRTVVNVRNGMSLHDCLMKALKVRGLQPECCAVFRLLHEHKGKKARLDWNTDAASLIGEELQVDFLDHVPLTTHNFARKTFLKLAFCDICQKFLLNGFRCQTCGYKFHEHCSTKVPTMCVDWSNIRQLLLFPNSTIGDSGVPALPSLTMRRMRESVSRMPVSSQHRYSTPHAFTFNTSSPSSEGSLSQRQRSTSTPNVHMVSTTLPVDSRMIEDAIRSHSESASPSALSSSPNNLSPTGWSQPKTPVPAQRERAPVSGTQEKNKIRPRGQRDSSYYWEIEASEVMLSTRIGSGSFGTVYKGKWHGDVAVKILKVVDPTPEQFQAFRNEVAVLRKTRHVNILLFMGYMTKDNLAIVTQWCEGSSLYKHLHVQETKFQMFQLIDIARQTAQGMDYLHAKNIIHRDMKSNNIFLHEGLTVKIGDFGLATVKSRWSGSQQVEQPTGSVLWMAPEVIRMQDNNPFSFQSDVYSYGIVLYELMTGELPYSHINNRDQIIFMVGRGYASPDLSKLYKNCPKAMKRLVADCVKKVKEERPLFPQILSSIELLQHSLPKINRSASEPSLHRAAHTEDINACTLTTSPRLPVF
Sequence of BTK (Q06187 whole entry): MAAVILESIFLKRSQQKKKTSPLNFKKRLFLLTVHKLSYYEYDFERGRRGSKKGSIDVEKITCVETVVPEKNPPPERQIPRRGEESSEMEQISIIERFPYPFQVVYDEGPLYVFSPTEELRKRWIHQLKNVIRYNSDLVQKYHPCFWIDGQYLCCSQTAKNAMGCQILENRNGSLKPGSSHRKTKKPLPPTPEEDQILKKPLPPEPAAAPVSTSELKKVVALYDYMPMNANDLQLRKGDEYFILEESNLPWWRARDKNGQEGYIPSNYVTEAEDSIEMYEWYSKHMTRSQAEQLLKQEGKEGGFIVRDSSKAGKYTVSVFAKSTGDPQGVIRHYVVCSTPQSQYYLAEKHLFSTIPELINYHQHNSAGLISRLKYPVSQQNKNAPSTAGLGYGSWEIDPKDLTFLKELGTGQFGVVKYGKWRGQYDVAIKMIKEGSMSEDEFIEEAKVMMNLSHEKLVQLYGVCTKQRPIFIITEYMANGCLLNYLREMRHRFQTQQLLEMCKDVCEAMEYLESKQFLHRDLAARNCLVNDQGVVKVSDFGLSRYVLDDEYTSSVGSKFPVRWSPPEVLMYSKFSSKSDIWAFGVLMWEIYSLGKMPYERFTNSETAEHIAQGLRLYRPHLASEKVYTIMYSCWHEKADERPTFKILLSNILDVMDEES

**Q.** For `O=C1NCCCc2c1oc1ccc(O)cc21` [CID755673, 7-Hydroxy-2,3,4,5-tetrahydro-[1]benzoxolo[2,3-c]azepin-1-one], which inhibition at 10 µM (PDGFRα) is on record?
**A.** 5%

**Q.** What about the inhibition at 10 µM (BTK) of the same compound?
**A.** -3%

**Q.** What about the “inhibition of PKCα” value (PKCα) of the same compound?
**A.** did not inhibit

**Q.** And the inhibition at 10 µM (SYK)?
**A.** -8%

**Q.** And the inhibition at 10 µM (Erk1)?
**A.** ≥ 50%

**Q.** And the inhibition at 10 µM (EGFR)?
**A.** 11%

**Q.** And the inhibition at 10 µM (Ikkb)?
**A.** 49%

**Q.** What about the inhibition at 10 µM (PKG1α) of the same compound?
**A.** 13%

**Q.** And the inhibition at 10 µM (c-Raf)?
**A.** 2%

**Q.** What about the inhibition at 10 µM (PKA) of the same compound?
**A.** 6%

**Q.** What about the inhibition at 10 µM (PKCζ) of the same compound?
**A.** -4%
